Assay results reported in patent US9987278B2, “Pharmaceutical composition for treating FLT3 mutation-positive cancer, mutant FLT3 inhibitor and uses thereof” (FUJIFILM Corporation, priority 2014, dated 2018).
Where two headings read alike, the source gives them in different places.

How the values were obtained:
[1] = target: mutant FLT3 protein (FLT3 D835Y) (Homo sapiens (Human), UniProt P36888, D835Y); assay: Mutant FLT3 (FLT3 D835Y) enzyme inhibition assay; assay type: biochemical; details: ATP 15 μmol/L, read-out: IC50 value for an enzymatic activity of a mutant FLT3 protein
32D FLT3/FL cells = assay: Cell growth assay, FLT3/FLT3 ligand-coexpressing 32D cell line; assay type: cell-based; details: Mus musculus, 48 h, read-out: GI50 value for growth of FLT3 protein-expressing 32D cells
Experimental: RPMI1640 and DMEM were purchased from Life Technologies or SIGMA. The 32D cells were obtained from RIKEN Bioresource Center, and cultured in the presence of 5% CO2 at 37° C. using an RPMI1640 medium containing 1 ng/mL mouse IL-3, 10% fetal bovine serum (FBS), 100 U/mL penicillin and […] streptomycin. The PLAT-E cells were kindly provided by Dr. Kitamura Toshio of Tokyo University and cultured in a DMEM medium containing 1 μg/mL puromycin, 10 μg/mL blasticidin S, 10% FBS, 100 U/mL penicillin and […] streptomycin. […] A pGEM-T vector, FuGENE6 and CellTiter 96 AQueous One Solution Cell Proliferation Assay were purchased from Promega Corporation.
(§1) Individual cells were seeded onto a 96-well plate (Becton, Dickinson and Company) at a density of 1000 to 10000 cells/well, and the cell culture was started at 37° C. in the presence of 5% CO2. On the next day, the compound diluted in 3-fold common ratio was added to each well, followed by further culturing for 2 days. Then, in order to evaluate the cell viability, a CellTiter 96 AQueous One SolutionReagent was added to each well according to the Promega Corporation's protocol, followed by culturing for 1 hour. […] In a case where the absorbance is insufficient, the absorbance was measured after performing the culturing for another 1 to 2 hours.

32D FLT3 D835Y cells = assay: Cell growth assay, 32D FLT3 D835Y; assay type: cell-based; details: Mus musculus, 48 h, read-out: GI50 value for growth of FLT3 protein-expressing 32D cells
Experimental: (§2) After the virus-containing culture supernatant was added to the mouse hematopoietic precursor cell line 32D cells in the presence of 10 μg/mL polybrene, and the cells were cultured in the presence of 0.5 ng/mL mouse IL-3.
as §1

32D FLT3 D835V cells = assay: Cell growth assay, 32D FLT3 D835V; assay type: cell-based; details: Mus musculus, 48 h, read-out: GI50 value for growth of FLT3 protein-expressing 32D cells
Experimental: as §2, §1

32D FLT3 D835H cells = assay: Cell growth assay, 32D FLT3 D835H; assay type: cell-based; details: Mus musculus, 48 h, read-out: GI50 value for growth of FLT3 protein-expressing 32D cells
Experimental: as §2, §1

32D FLT3 D835E cells = assay: Cell growth assay, 32D FLT3 D835E; assay type: cell-based; details: Mus musculus, 48 h, read-out: GI50 value for growth of FLT3 protein-expressing 32D cells
Experimental: as §2, §1

32D FLT3 D835N cells = assay: Cell growth assay, 32D FLT3 D835N; assay type: cell-based; details: Mus musculus, 48 h, read-out: GI50 value for growth of FLT3 protein-expressing 32D cells
Experimental: as §2, §1

32D FLT3 D835Ins cells = assay: Cell growth assay, 32D FLT3 D835Ins; assay type: cell-based; details: Mus musculus, 48 h, read-out: GI50 value for growth of FLT3 protein-expressing 32D cells
Experimental: as §2, §1

32D FLT3 Y842C cells = assay: Cell growth assay, 32D FLT3 Y842C; assay type: cell-based; details: Mus musculus, 48 h, read-out: GI50 value for growth of FLT3 protein-expressing 32D cells
Experimental: as §2, §1

32D FLT3 Y842H cells = assay: Cell growth assay, 32D FLT3 Y842H; assay type: cell-based; details: Mus musculus, 48 h, read-out: GI50 value for growth of FLT3 protein-expressing 32D cells
Experimental: as §2, §1

[2] = FLT3 D835Y, 2 days with compound
[3] = FLT3 D835V, 2 days with compound
[4] = FLT3 D835H, 2 days with compound
[5] = FLT3 D835E, 2 days with compound
[6] = FLT3 D835N, 2 days with compound
[7] = FLT3 D835Ins (I836 to leucine and aspartic acid), 2 days with compound
[8] = FLT3 Y842C, 2 days with compound
[9] = FLT3 Y842H, 2 days with compound

| SMILES | IC50 [1] [nM] | other results |
| --- | --- | --- |
| C=CC(=O)N(C)CC(=O)NC(CC)CCNC(=O)c1cnc(NCCc2ccncc2)nc1NCCC (stereo not drawn) [Compound 19] | < 1 |  |
| CCCNc1nc(NCCc2ccncc2)ncc1C(=O)Nc1cccc(NC(=O)CNC(=O)/C=C/CN2CCOCC2)c1 [Compound 13] | 1 to 10 |  |
| CCCNc1nc(Nc2ccc(C(N)=O)cc2)ncc1C#Cc1cccc(NCCNC(=O)/C=C/CN(C)C)c1 [Compound 31] | 1 to 10 |  |
| C=CC(=O)NCC(=O)Nc1cccc(CNC(=O)c2cnc(NCCc3ccncc3)nc2NCCC)c1 [Compound 1] | 1 to 10 |  |
| CCCNc1nc(Nc2ccc(C(N)=O)cc2)ncc1C(=O)NCCCNC(=O)[C@H](C)N(C)C(=O)/C=C/CN(C)C [Compound 25] | < 1 |  |
| CNc1nc(Nc2ccc(F)cc2)ncc1C#C[C@H]1C[C@@H](NC(=O)[C@H](C)N(C)C(=O)/C=C/CN(C)C)C1 [Compound 41] | < 1 | GI50 (32D FLT3/FL cells; FLT3/FL, 2 days with compound): < 1 nM; GI50 (32D FLT3 D835Y cells; [2]): 1 to 10 nM; GI50 (32D FLT3 D835V cells; [3]): 1 to 10 nM; GI50 (32D FLT3 D835H cells; [4]): 1 to 10 nM; GI50 (32D FLT3 D835E cells; [5]): 1 to 10 nM; GI50 (32D FLT3 D835N cells; [6]): 1 to 10 nM; GI50 (32D FLT3 D835Ins cells; [7]): 1 to 10 nM; GI50 (32D FLT3 Y842C cells; [8]): 1 to 10 nM; GI50 (32D FLT3 Y842H cells; [9]): 1 to 10 nM |
| CCCNc1nc(Nc2ccc(C(N)=O)cc2)ncc1C#Cc1cccc(NC(=O)[C@H](C)N(C)C(=O)/C=C/CN(C)C)c1 [Compound 29] | < 1 |  |
| CCCNc1nc(NCCc2ccncc2)ncc1C(=O)NCCCNC(=O)CNC(=O)/C=C/CN(C)C [Compound 23] | < 1 |  |
| CCCNc1nc(Nc2ccc(C(N)=O)cc2)ncc1C(=O)NC1CCCC(NC(=O)CN(C)C(=O)/C=C/CN(C)C)C1 (stereo not drawn) [Compound 26] | < 1 |  |
| C=CC(=O)NCCOc1cccc(NC(=O)c2cnc(NCCc3ccncc3)nc2NCCC)c1 [Compound 6] | 1 to 10 |  |
| CCCN(C)c1nc(NCCc2ccncc2)ncc1C#Cc1cccc(NC(=O)[C@H](C)N(C)C(=O)/C=C/CN(C)C)c1 [Compound 37] | < 1 |  |
| CCCNc1nc(NCCc2ccncc2)ncc1C(=O)NCCC(CC)NC(=O)CNC(=O)/C=C/CN(C)C (stereo not drawn) [Compound 18] | < 1 |  |
| C=CC(=O)NCC(=O)Nc1ccccc1CNC(=O)c1cnc(NCCc2ccncc2)nc1NCCC [Compound 3] | 1 to 10 |  |
| CCCNc1nc(NCCc2ccncc2)ncc1C(=O)Nc1cccc(NC(=O)CNC(=O)/C=C/CN2CCN(C)CC2)c1 [Compound 12] | 1 to 10 |  |
| C=CC(=O)N[C@H](C)C(=O)Nc1cccc(NC(=O)c2cnc(NCCc3ccncc3)nc2NCCC)c1 [Compound 8] | 1 to 10 |  |
| CCCNc1nc(NCCc2ccncc2)ncc1C(=O)Nc1cccc(NC(=O)[C@H](C)N(C)C(=O)/C=C/CN(C)C)c1 [Compound 30] | < 1 |  |
| CCCNc1nc(NCCc2ccncc2)ncc1C(=O)Nc1cccc(NC(=O)[C@H](C)NC(=O)/C=C/CN(C)C)c1 [Compound 24] | < 1 |  |
| CCCNc1nc(NCCc2ccncc2)ncc1C(=O)Nc1cccc(NC(=O)CNC(=O)/C=C/CN(C)C)c1 [Compound 5] | < 1 |  |
| C=CC(=O)NCC(=O)N(C)c1cccc(NC(=O)c2cnc(NCCc3ccncc3)nc2NCCC)c1 [Compound 11] | 1 to 10 |  |
| CCCNc1nc(Nc2ccc(C(N)=O)cc2)ncc1C(=O)Nc1cccc(NC(=O)[C@H](C)N(C)C(=O)/C=C/CN(C)C)c1 [Compound 27] | < 1 |  |

| SMILES | IC50 [1] [nM] | other results |
| --- | --- | --- |
| C[C@@H](C(=O)Nc1cccc(C#Cc2cnc(NCCc3ccncc3)nc2N2CCOCC2)c1)N(C)C(=O)/C=C/CN(C)C [Compound 36] | < 1 |  |
| CCCNc1nc(Nc2ccc3cnccc3c2)ncc1C(=O)Nc1cccc(NC(=O)[C@H](C)N(C)C(=O)/C=C/CN(C)C)c1 [Compound 28] | < 1 |  |
| C=CC(=O)NCC(=O)NCCCNC(=O)c1cnc(NCCc2ccncc2)nc1NCCC [Compound 7] | < 1 |  |
| C=CC(=O)NCC(=O)NC(CC)CCNC(=O)c1cnc(NCCc2ccncc2)nc1NCCC (stereo not drawn) [Compound 17] | < 1 |  |
| C=CC(=O)NCC(=O)Nc1cccc(NC(=O)c2cnc(NCCc3ccncc3)nc2NCCC)c1 [Compound 2] | < 1 |  |
| C=CC(=O)N(C)CC(=O)Nc1cccc(NC(=O)c2cnc(NCCc3ccncc3)nc2NCCC)c1 [Compound 10] | < 1 |  |
| C=CC(=O)N[C@@H](C)C(=O)Nc1cccc(NC(=O)c2cnc(NCCc3ccncc3)nc2NCCC)c1 [Compound 16] | < 1 |  |
| CCCNc1nc(NCCc2ccncc2)ncc1C(=O)NCCC(CC)NC(=O)CN(C)C(=O)/C=C/CN(C)C (stereo not drawn) [Compound 20] | < 1 |  |
| CCCNc1nc(NCCc2ccncc2)ncc1C(=O)Nc1cccc(NC(=O)CNC(=O)/C=C/CN2CCN(CCO)CC2)c1 [Compound 14] | < 1 |  |
| CCCNc1nc(NCCc2ccncc2)ncc1C#Cc1cccc(NC(=O)[C@H](C)N(C)C(=O)/C=C/CN(C)C)c1 [Compound 35] | < 1 |  |
| CCCNc1nc(Nc2cccc(F)c2)ncc1C#CCCCNC(=O)[C@H](C)N(C)C(=O)/C=C/CN(C)C [Compound 34] | < 1 |  |
| C=CC(=O)NC(C)(C)C(=O)Nc1cccc(NC(=O)c2cnc(NCCc3ccncc3)nc2NCCC)c1 [Compound 9] | < 1 |  |
| C[C@@H](C(=O)N[C@H]1C[C@@H](C#Cc2cnc(Nc3ccc(F)cc3)nc2NC2CC2)C1)N(C)C(=O)/C=C/CN(C)C [Compound 40] | < 1 | GI50 (32D FLT3/FL cells; FLT3/FL, 2 days with compound): < 1 nM; GI50 (32D FLT3 D835Y cells; [2]): < 1 nM; GI50 (32D FLT3 D835V cells; [3]): < 1 nM; GI50 (32D FLT3 D835H cells; [4]): 1 to 10 nM; GI50 (32D FLT3 D835E cells; [5]): < 1 nM; GI50 (32D FLT3 D835N cells; [6]): < 1 nM; GI50 (32D FLT3 D835Ins cells; [7]): < 1 nM; GI50 (32D FLT3 Y842C cells; [8]): 1 to 10 nM; GI50 (32D FLT3 Y842H cells; [9]): 1 to 10 nM |
| C=CC(=O)NCCNc1cccc(NC(=O)c2cnc(NCCc3ccncc3)nc2NCCC)c1 [Compound 15] | 1 to 10 |  |
| CCCNc1nc(Nc2cccc(C#N)c2)ncc1C#CCCCNC(=O)[C@H](C)N(C)C(=O)/C=C/CN(C)C [Compound 33] | 1 to 10 |  |
| C=CC(=O)NCC(=O)Nc1cc(Cl)cc(NC(=O)c2cnc(NCCc3ccncc3)nc2NCCC)c1 [Compound 4] | 1 to 10 |  |
| CCCNc1nc(NCCc2ccncc2)ncc1C(=O)Nc1ccc(C)c(NC(=O)CNC(=O)/C=C/CN(C)C)c1 [Compound 22] | < 1 |  |
| CNC(=O)c1cc(Oc2ccc(NC(=O)Nc3ccc(Cl)c(C(F)(F)F)c3)cc2)ccn1 [Reference Compound 2, Sorafenib, reference compound] |  | GI50 (32D FLT3/FL cells): 10 to 100 nM; GI50 (32D FLT3 D835Y cells): > 100 nM; GI50 (32D FLT3 D835V cells): > 100 nM; GI50 (32D FLT3 D835H cells): > 100 nM; GI50 (32D FLT3 D835E cells): 10 to 100 nM; GI50 (32D FLT3 D835N cells): 10 to 100 nM; GI50 (32D FLT3 D835Ins cells): 10 to 100 nM; GI50 (32D FLT3 Y842C cells): > 100 nM; GI50 (32D FLT3 Y842H cells): > 100 nM |
| CCCNc1nc(NCCc2ccncc2)ncc1C(=O)Nc1cccc(NC(=O)CNC(=O)/C=C/CN2CC(C)NC(C)C2)c1 (stereo not drawn) [Compound 21] | < 1 |  |
| CCCNc1nc(Nc2ccc(C(N)=O)cc2)ncc1C(=O)Nc1cccc(NC(=O)[C@H](C)N(C)C(=O)/C=C/CN2CC(O)C2)c1 [Compound 32] | < 1 |  |
